Laboratory results: US10041953B2, “Mass spectrometric determination of drug resistance” (priority 2013, dated 2018)
≈ marks a conversion by molar mass, not a printed value.

What was measured:
Assay type in all cases: cell-based
Salmonella strain 6836 = experiment: MIC for ciprofloxacin, Salmonella strain 6836; settings: Salmonella strain 6836, double gyrase mutation
Salmonella strain 19222 = experiment: MIC for ciprofloxacin, Salmonella strain 19222; settings: Salmonella strain 19222, one gyrase amino acid substitution
[1] = system: salmonella wild type (13471); experiment: MIC for ciprofloxacin, wild type (13471); settings: wild type gyrase
Salmonella strain 17109 = experiment: MIC for ciprofloxacin, Salmonella strain 17109; settings: Salmonella strain 17109, one gyrase amino acid substitution

Molecule O=C(O)c1cn(C2CC2)c2cc(N3CCNCC3)c(F)cc2c1=O [ciprofloxacin] has an MIC (Salmonella strain 6836) of 32 µg/mL (≈ 96.6 µM), an MIC (Salmonella strain 19222) of 1 µg/mL (≈ 3.02 µM) and an MIC [1] of 0.03 µg/mL (≈ 0.0905 µM). It also gave an MIC (Salmonella strain 17109) of 1 µg/mL (≈ 3.02 µM).
